{"source": "paper PMC11219860", "about": "“A chemogenetic approach for dopamine imaging with tunable sensitivity” (Nature Communications, 2024)", "key": {"[1]": {"test": "In vivo pharmacokinetics, free brain concentration (LC/MS)", "design": "species or system mouse", "settings": "10 mg/kg i.p.", "protocol": "To measure free brain and plasma concentrations of DETQ in the mouse, male C57Bl6/N mice from Taconic Biosciences (Germantown, NY, USA) weighing 23–25 g (9–10 weeks old) were used for this study. The animals were acclimated for at least 72 hours after arrival from the breeder and housed five per cage in “shoe box” size cages with free access to food and water (lights on from 5 am to 5 pm) before use. The experiment was approved by the Institutional IACUC committee, and Eli Lilly is an AAALAC-certified facility. DETQ (Eli Lilly, see above) was formulated as a fine suspension in 20% HPBCD in purified water using ultrasonication. The drug was administered intraperitoneally at 10 mg/kg body weight (10 mL/kg. dose volume) with four animals per time point (0.25, 0.5, 0.75, 1, 1.5, and 2 hr). The animals were decapitated at the time points indicated above, and their frontal brains (mainly frontal cortex) were rapidly dissected and frozen. Blood was collected at decapitation, and plasma was separated by centrifugation. Both samples were then stored at −80 °C until further analysis. DETQ concentrations were measured in plasma and brain tissues by liquid chromatography with tandem mass spectrometry (LC/MS). The samples were analyzed using an AB Sciex API 4000 quadrupole mass spectrometer (Applied Biosystems, Foster City, CA) with a TurboIonSpray interface. Brain samples were homogenized in a methanol-water solution (20:80) using a probe sonicator. Both brain and plasma samples underwent extraction procedures. Calibration curves were established by spiking blank plasma or brain samples with an internal standard. The system utilized Shimadzu LC-10AD pumps controlled by an SCL-10A controller (Kyoto, Japan). Sample injections were performed by a Z-215 liquid handler (Gilson, Middleton, WI). Chromatographic separation of all compounds was achieved using a Betasil javelin C18 HPLC column, 20 mm × 2.1 mm, 5 μm (Thermo Fisher Scientific, Waltham, MA). The unbound fraction in brain tissue samples was determined by equilibrium dialysis in mouse brain homogenate mixtures after incubation of the compound for 4.5 hours. The unbound brain concentrations were calculated from the following equation[24]: Totalbrainconcentration*Unboundfractioninbrain=Unboundbrainconcentration(Cu,brain)"}, "[2]": {"design": "method as in Bruns et al., 2018", "settings": "ref Bruns et al., 2018, cited from earlier work"}, "dLight1.3b [3]": {"test_system": "dLight1.3b", "test": "Unpredicted reward or footshock with PFC dLight1.3b photometry", "assay_type": "in vivo, mouse", "protocol": "(§1) After habituating mice to the experimental chamber (4 consecutive days for 5–10 min) mice were food restricted to 90% ad libitum body weight. […] During learning sessions, the delay between CS and US was increased every training day from 2 to 10 seconds until mice became expert. […] After i.p. injection, mice were placed into an operant chamber. 3–4 electric footshocks (0.4 mA for 1 second) were delivered 10 to 25 min post vehicle or DETQ with variable intervals (randomly chosen from a uniform distribution between 240 and 360 seconds or between 120 and 240 seconds) without predictive cues. Mouse freezing behavior was monitored with a video camera (C310 Logitech,10 frames per second) positioned above the recording chamber and controlled by the Synapse software. […] Freezing was defined as the complete cessation of all movement for at least 1 s during a 25-min testing duration.\nFor long-term recordings during optogenetic stimulation or chemogenetic inhibition linear fit was calculated across the entire recording or across the vehicle epoch; for event-related experiments fit was performed on fluorescent data obtained in the −60 to +60 s around opto events or −5 to −1 s around behavioral events. […] DA event-related responses were quantified by computing the value at the transient’s peak value and the AUC in the 0 to 10 s or 0 to 60 s period post-event onset. […] The maximal peak value of Veh-normalized ΔF/F0 after opto-onset was plotted over time and the plateau of maximal response was determined by averaging peak opto responses 5, 10, 15 and 20 min post-DETQ. We then looked at trials between 5 and 65 min post-DETQ to determine which trials belonged to a ‘temporal window for stable imaging’. […] Average ΔF/F0 in the 10–20 min post vehicle injection, 0–10 min post DETQ/Veh and 2–12 min post J60/Veh were computed. […] For weekly DETQ injection, AUC was calculated in the relevant drug epoch (Veh, DETQ) and normalized against the duration of that epoch (Veh: 10 min, DETQ: 50 min). […] AUC of the baseline was calculated within the +5 to +40 minutes time window post ip injection. For detection of spontaneous DA peaks the calculated ΔF/F0 was smoothed with a 50 datapoints (410 milliseconds) moving window, and the built-in Matlab function findpeaks was applied, with the threshold for minimal peak prominence set to 0.5% ΔF/F0."}, "dLight1.3b [4]": {"test_system": "dLight1.3b", "test": "Cue-reward Pavlovian conditioning with NAc dLight1.3b photometry", "assay_type": "in vivo, mouse", "protocol": "as §1\nFor long-term recordings during optogenetic stimulation or chemogenetic inhibition linear fit was calculated across the entire recording or across the vehicle epoch; for event-related experiments fit was performed on fluorescent data obtained in the −60 to +60 s around opto events or −5 to −1 s around behavioral events. […] DA event-related responses were quantified by computing the value at the transient’s peak value and the AUC in the 0 to 10 s or 0 to 60 s period post-event onset. […] The maximal peak value of Veh-normalized ΔF/F0 after opto-onset was plotted over time and the plateau of maximal response was determined by averaging peak opto responses 5, 10, 15 and 20 min post-DETQ. We then looked at trials between 5 and 65 min post-DETQ to determine which trials belonged to a ‘temporal window for stable imaging’. […] AUC of the baseline was calculated within the +5 to +40 minutes time window post ip injection. For detection of spontaneous DA peaks the calculated ΔF/F0 was smoothed with a 50 datapoints (410 milliseconds) moving window, and the built-in Matlab function findpeaks was applied, with the threshold for minimal peak prominence set to 0.5% ΔF/F0."}, "[5]": {"settings": "NAc, DETQ 10 mg/kg vs vehicle days"}}, "note": "Like-named read-outs stand apart in the source and are kept apart here."}
{"smiles": "C[C@H]1c2cccc(C(C)(C)O)c2C[C@H](CO)N1C(=O)Cc1c(Cl)cccc1Cl", "note": "[DETQ, 2-(2,6-dichlorophenyl)-1-((1S,3R)-3-(hydroxymethyl)-5-(2-hydroxypropan-2-yl)-1-methyl-3,4-dihydroisoquinolin-2(1H)-yl)ethan-1-one]", "values": [{"measurement": "clearance from the brain", "setting": "[1]; 2 hours post-injection", "result": "almost completely cleared"}, {"measurement": "concentration at 1 h", "setting": "[1]; male, C57Bl6/N, mouse, brain (frontal brain, unbound concentration), intraperitoneal, 1-hour post-injection, read-out: free brain level", "result": "< 50", "unit": "nM"}, {"measurement": "concentration at 15 min", "setting": "[1]; male, C57Bl6/N, mouse, brain (frontal brain, unbound concentration), intraperitoneal, 15 minutes after dosing, read-out: free brain level", "result": "~270", "unit": "nM"}, {"measurement": "concentration at 45 min", "setting": "[1]; male, C57Bl6/N, mouse, brain (frontal brain, unbound concentration), intraperitoneal, 45 minutes post-injection, read-out: free brain level", "result": "~110", "unit": "nM"}, {"measurement": "brain levels of the histamine metabolites", "setting": "[2]; hD1 mice, same dose", "result": "significant elevations"}, {"measurement": "brain levels of the histamine metabolites", "setting": "[2]; wild type mice, 10 mg/kg PO", "result": "did not change"}, {"measurement": "increase in the average peak amplitude vs. Vehicle", "setting": "dLight1.3b [3]; PFC, unpredicted reward", "result": 2, "unit": "fold"}, {"measurement": "single trials with detected response to reward", "setting": "dLight1.3b [3]; PFC, unpredicted reward", "result": "90.91 ± 1.40", "unit": "%"}, {"measurement": "amplitude of DA signals during unexpected footshocks", "setting": "dLight1.3b [3]; PFC, vs interleaved vehicle days", "result": "significantly larger"}, {"measurement": "response to footshocks (freezing)", "setting": "dLight1.3b [3]; mouse, in vivo", "result": "not affected"}, {"measurement": "licking duration", "setting": "dLight1.3b [3]; unpredicted reward", "result": "remained unchanged"}, {"measurement": "latency to lick and overall licking activity", "setting": "dLight1.3b [4]; DETQ 10 mg/kg", "result": "not affected"}, {"measurement": "enhancement factor of CS-associated DA peak amplitude", "setting": "dLight1.3b [4]; [5]", "result": "approximately 2 fold"}, {"measurement": "enhancement factor of US-associated DA peak amplitude", "setting": "dLight1.3b [4]; [5]", "result": "~1.5", "unit": "fold"}]}
